# From ChEMBL document CHEMBL3885881, “DrugMatrix”
# Organism: Rattus norvegicus
# Test: DrugMatrix - Regimen: Daily Repeat
# Type: toxicity, organism-based, Sprague-Dawley
# Set-up: regimen Daily Repeat, gender Male, age 6-8 weeks
# Conditions: in vivo, po, route oral GAVAGE, vehicle 100 % WATER; for ABSOLUTE BASOPHIL / ABSOLUTE EOSINOPHIL / ABSOLUTE LYMPHOCYTE / ABSOLUTE MONOCYTE / ABSOLUTE SEGMENTED NEUTROPHIL / BASOPHIL / EOSINOPHIL / ERYTHROCYTE COUNT / HEMATOCRIT / HEMOGLOBIN / LEUKOCYTE COUNT / LYMPHOCYTE / MEAN CORPUSCULAR HEMOGLOBIN / MEAN CORPUSCULAR HEMOGLOBIN CONCENTRATION / MEAN CORPUSCULAR VOLUME / MONOCYTE / NEUTROPHIL / NUCLEATED RED BLOOD CELLS / PLATELET COUNT: tissue Blood; for ALANINE AMINOTRANSFERASE / ALBUMIN / ALKALINE PHOSPHATASE / ASPARTATE AMINOTRANSFERASE / BLOOD UREA NITROGEN / CARBON DIOXIDE / CHLORIDE / CHOLESTEROL / CREATINE PHOSPHOKINASE / CREATININE / GLUCOSE / LACTATE DEHYDROGENASE / LIPASE / PHOSPHORUS / POTASSIUM / SODIUM / TOTAL BILIRUBIN / TOTAL PROTEIN / URIC ACID: tissue Plasma
# [1] = 17 mg/kg, 72 h, dose level High, time 3 day
# [2] = 17 mg/kg, 120 h, dose level High, time 5 day
# [3] = […], 72 h, dose 1.7 mg/Kg, dose level Low, time 3 day
# [4] = […], 120 h, dose 1.7 mg/Kg, dose level Low, time 5 day
smiles,measurement,setting,value
COP(=O)(OC)OC=C(Cl)Cl [DICHLORVOS],ABSOLUTE BASOPHIL,[1],0 CELLS/uL
same,ABSOLUTE EOSINOPHIL,[1],43.33 CELLS/uL
same,ABSOLUTE LYMPHOCYTE,[1],12252 CELLS/uL
same,ABSOLUTE MONOCYTE,[1],527.33 CELLS/uL
same,ABSOLUTE SEGMENTED NEUTROPHIL,[1],1577.33 CELLS/uL
same,BASOPHIL,[1],0%
same,EOSINOPHIL,[1],0.33%
same,ERYTHROCYTE COUNT,[1],5.59 x10E6/uL
same,HEMATOCRIT,[1],34.9%
same,HEMOGLOBIN,[1],13.5 G/DL
same,LEUKOCYTE COUNT,[1],14.4 x10E3/uL
same,LYMPHOCYTE,[1],85%
same,MEAN CORPUSCULAR HEMOGLOBIN,[1],24.17 pg
same,MEAN CORPUSCULAR HEMOGLOBIN CONCENTRATION,[1],38.7 G/DL
same,MEAN CORPUSCULAR VOLUME,[1],62.53 fL
same,MONOCYTE,[1],3.67%
same,NEUTROPHIL,[1],11%
same,NUCLEATED RED BLOOD CELLS,[1],0 /100WBC
same,PLATELET COUNT,[1],1225.67 x10E3/uL
same,ALANINE AMINOTRANSFERASE,[1],49.67 u/L
same,ALBUMIN,[1],4 G/DL
same,ALKALINE PHOSPHATASE,[1],370.33 u/L
same,ASPARTATE AMINOTRANSFERASE,[1],92 u/L
same,BLOOD UREA NITROGEN,[1],17.67 mg/dL
same,CARBON DIOXIDE,[1],27 mmol/L
same,CHLORIDE,[1],104.33 MEQ/L
same,CHOLESTEROL,[1],63.67 mg/dL
same,CREATINE PHOSPHOKINASE,[1],448 u/L
same,CREATININE,[1],0.2 mg/dL
same,GLUCOSE,[1],141 mg/dL
same,LACTATE DEHYDROGENASE,[1],444.33 u/L
same,LIPASE,[1],8.33 u/L
same,PHOSPHORUS,[1],12.67 mg/dL
same,POTASSIUM,[1],6.46 MEQ/L
same,SODIUM,[1],145.9 MEQ/L
same,TOTAL BILIRUBIN,[1],0.2 mg/dL
same,TOTAL PROTEIN,[1],5.77 G/DL
same,URIC ACID,[1],1.23 mg/dL
same,ABSOLUTE BASOPHIL,[2],0 CELLS/uL
same,ABSOLUTE EOSINOPHIL,[2],213.33 CELLS/uL
same,ABSOLUTE LYMPHOCYTE,[2],13980 CELLS/uL
same,ABSOLUTE MONOCYTE,[2],329.33 CELLS/uL
same,ABSOLUTE SEGMENTED NEUTROPHIL,[2],1944 CELLS/uL
same,BASOPHIL,[2],0%
same,EOSINOPHIL,[2],1.33%
same,ERYTHROCYTE COUNT,[2],5.69 x10E6/uL
same,HEMATOCRIT,[2],34.17%
same,HEMOGLOBIN,[2],13.03 G/DL
same,LEUKOCYTE COUNT,[2],16.47 x10E3/uL
same,LYMPHOCYTE,[2],85%
same,MEAN CORPUSCULAR HEMOGLOBIN,[2],22.9 pg
same,MEAN CORPUSCULAR HEMOGLOBIN CONCENTRATION,[2],38.13 G/DL
same,MEAN CORPUSCULAR VOLUME,[2],60.07 fL
same,MONOCYTE,[2],2%
same,NEUTROPHIL,[2],11.67%
same,NUCLEATED RED BLOOD CELLS,[2],0 /100WBC
same,PLATELET COUNT,[2],1272.67 x10E3/uL
same,ALANINE AMINOTRANSFERASE,[2],46 u/L
same,ALBUMIN,[2],4.23 G/DL
same,ALKALINE PHOSPHATASE,[2],289.33 u/L
same,ASPARTATE AMINOTRANSFERASE,[2],91 u/L
same,BLOOD UREA NITROGEN,[2],19.33 mg/dL
same,CARBON DIOXIDE,[2],24.67 mmol/L
same,CHLORIDE,[2],105.33 MEQ/L
same,CHOLESTEROL,[2],60.33 mg/dL
same,CREATINE PHOSPHOKINASE,[2],609.33 u/L
same,CREATININE,[2],0.22 mg/dL
same,GLUCOSE,[2],167.33 mg/dL
same,LACTATE DEHYDROGENASE,[2],458 u/L
same,LIPASE,[2],8.33 u/L
same,PHOSPHORUS,[2],12.8 mg/dL
same,POTASSIUM,[2],5.47 MEQ/L
same,SODIUM,[2],146.93 MEQ/L
same,TOTAL BILIRUBIN,[2],0.13 mg/dL
same,TOTAL PROTEIN,[2],5.8 G/DL
same,URIC ACID,[2],1.37 mg/dL
same,ABSOLUTE BASOPHIL,[3],0 CELLS/uL
same,ABSOLUTE EOSINOPHIL,[3],0 CELLS/uL
same,ABSOLUTE LYMPHOCYTE,[3],12487 CELLS/uL
same,ABSOLUTE MONOCYTE,[3],388 CELLS/uL
same,ABSOLUTE SEGMENTED NEUTROPHIL,[3],1291.67 CELLS/uL
same,BASOPHIL,[3],0%
same,EOSINOPHIL,[3],0%
same,ERYTHROCYTE COUNT,[3],6.29 x10E6/uL
same,HEMATOCRIT,[3],38.27%
same,HEMOGLOBIN,[3],14.27 G/DL
same,LEUKOCYTE COUNT,[3],14.17 x10E3/uL
same,LYMPHOCYTE,[3],88.33%
same,MEAN CORPUSCULAR HEMOGLOBIN,[3],22.67 pg
same,MEAN CORPUSCULAR HEMOGLOBIN CONCENTRATION,[3],37.3 G/DL
same,MEAN CORPUSCULAR VOLUME,[3],60.77 fL
same,MONOCYTE,[3],2.67%
same,NEUTROPHIL,[3],9%
same,NUCLEATED RED BLOOD CELLS,[3],0 /100WBC
same,PLATELET COUNT,[3],1299 x10E3/uL
same,ALANINE AMINOTRANSFERASE,[3],50 u/L
same,ALBUMIN,[3],4.4 G/DL
same,ALKALINE PHOSPHATASE,[3],363 u/L
same,ASPARTATE AMINOTRANSFERASE,[3],81.33 u/L
same,BLOOD UREA NITROGEN,[3],14.67 mg/dL
same,CARBON DIOXIDE,[3],23 mmol/L
same,CHLORIDE,[3],104 MEQ/L
same,CHOLESTEROL,[3],85.67 mg/dL
same,CREATINE PHOSPHOKINASE,[3],178 u/L
same,CREATININE,[3],0.19 mg/dL
same,GLUCOSE,[3],178.67 mg/dL
same,LACTATE DEHYDROGENASE,[3],95.67 u/L
same,LIPASE,[3],9.33 u/L
same,PHOSPHORUS,[3],13.57 mg/dL
same,POTASSIUM,[3],6.76 MEQ/L
same,SODIUM,[3],146.43 MEQ/L
same,TOTAL BILIRUBIN,[3],0.23 mg/dL
same,TOTAL PROTEIN,[3],6.37 G/DL
same,URIC ACID,[3],3.2 mg/dL
same,ABSOLUTE BASOPHIL,[4],0 CELLS/uL
same,ABSOLUTE EOSINOPHIL,[4],131 CELLS/uL
same,ABSOLUTE LYMPHOCYTE,[4],11771.67 CELLS/uL
same,ABSOLUTE MONOCYTE,[4],175 CELLS/uL
same,ABSOLUTE SEGMENTED NEUTROPHIL,[4],1055.67 CELLS/uL
same,BASOPHIL,[4],0%
same,EOSINOPHIL,[4],1%
same,ERYTHROCYTE COUNT,[4],5.65 x10E6/uL
same,HEMATOCRIT,[4],34.67%
same,HEMOGLOBIN,[4],13 G/DL
same,LEUKOCYTE COUNT,[4],13.13 x10E3/uL
same,LYMPHOCYTE,[4],89.67%
same,MEAN CORPUSCULAR HEMOGLOBIN,[4],22.97 pg
same,MEAN CORPUSCULAR HEMOGLOBIN CONCENTRATION,[4],37.5 G/DL
same,MEAN CORPUSCULAR VOLUME,[4],61.37 fL
same,MONOCYTE,[4],1.33%
same,NEUTROPHIL,[4],8%
same,NUCLEATED RED BLOOD CELLS,[4],0 /100WBC
same,PLATELET COUNT,[4],1220 x10E3/uL
same,ALANINE AMINOTRANSFERASE,[4],47.67 u/L
same,ALBUMIN,[4],4.2 G/DL
same,ALKALINE PHOSPHATASE,[4],278 u/L
same,ASPARTATE AMINOTRANSFERASE,[4],83.67 u/L
same,BLOOD UREA NITROGEN,[4],18.33 mg/dL
same,CARBON DIOXIDE,[4],25.67 mmol/L
same,CHLORIDE,[4],106.67 MEQ/L
same,CHOLESTEROL,[4],68.33 mg/dL
same,CREATINE PHOSPHOKINASE,[4],322.33 u/L
same,CREATININE,[4],0.19 mg/dL
same,GLUCOSE,[4],144.33 mg/dL
same,LACTATE DEHYDROGENASE,[4],436.33 u/L
same,LIPASE,[4],8.67 u/L
same,PHOSPHORUS,[4],11.6 mg/dL
same,POTASSIUM,[4],6.06 MEQ/L
same,SODIUM,[4],146.23 MEQ/L
same,TOTAL BILIRUBIN,[4],0.2 mg/dL
same,TOTAL PROTEIN,[4],5.9 G/DL
same,URIC ACID,[4],1.03 mg/dL
